Experimental data taken from the supplement of paper PMC10307832.

Tests used:
Experiment in all cases: relative viability (nuclei count vs DMSO), 5 days (fraction); higher = more cells survive
[1] = compound: CCC1=CN=CN=C1N2CCN(CC2)CC3=NC4=C(N3)C=C(C=C4)C(F)(F)F + CC(C)C[C@H](NC(=O)[C@H](Cc1ccccc1)NC(=O)c1cnccn1)B(O)O [Bortezomib] (partner 0.002 µM)
In short: (§1)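 Lung cancer cell lines in 1536-well plates were dosed by pin tool the day after seeding, either with one drug alone or with a fixed anchor-drug dose plus five library-drug doses (not always all listed) in √10 steps. After 5 days, cells were fixed and their nuclei stained in one step (final 0.05% Triton X-100, 1% formaldehyde, 1 ug/ml Hoechst), then counted on 4× images. Relative viability is the nuclei count in treated wells divided by that in vehicle wells. Values are medians of duplicate plates.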

[2] = compound: CCC1=CN=CN=C1N2CCN(CC2)CC3=NC4=C(N3)C=C(C=C4)C(F)(F)F + C[C@]1(O)C[C@@H](c2nc(-c3ccc4ccc(-c5ccccc5)nc4c3)c3c(N)nccn32)C1 [Linsitinib] (partner 1 µM)
In short: as §1

[3] = compound: CCn1c(-c2nonc2N)nc2cnc(Oc3cccc(NC(=O)c4ccc(OCCN5CCOCC5)cc4)c3)cc21 + CC(=O)c1c(C)c2cnc(Nc3ccc(N4CCNCC4)cn3)nc2n(C2CCCC2)c1=O [Palbociclib] (partner 0.5 µM)
In short: as §1

Mirin + Pemetrexed = compound: N=C1NC(=O)/C(=C/c2ccc(O)cc2)S1 [Mirin] + Nc1nc2[nH]cc(CCc3ccc(C(=O)N[C@@H](CCC(=O)O)C(=O)O)cc3)c2c(=O)[nH]1 [Pemetrexed] (partner 0.2 µM)
In short: as §1

Cell Line | relative viability ([1]; first compound 0.04 µM) | relative viability ([1]; first compound 0.1265 µM) | relative viability ([1]; first compound 0.4 µM) | relative viability ([1]; first compound 1.265 µM) | relative viability ([1]; first compound 4 µM) | relative viability ([2]; first compound 0.04 µM) | relative viability ([2]; first compound 0.1265 µM) | relative viability ([2]; first compound 0.4 µM) | relative viability ([2]; first compound 1.265 µM) | relative viability ([2]; first compound 4 µM) | relative viability ([3]; first compound 0.04 µM) | relative viability ([3]; first compound 0.1265 µM) | relative viability ([3]; first compound 0.4 µM) | relative viability ([3]; first compound 1.265 µM) | relative viability ([3]; first compound 4 µM) | relative viability (Mirin + Pemetrexed; first compound 0.25 µM) | relative viability (Mirin + Pemetrexed; first compound 0.7906 µM) | relative viability (Mirin + Pemetrexed; first compound 2.5 µM) | relative viability (Mirin + Pemetrexed; first compound 7.906 µM) | relative viability (Mirin + Pemetrexed; first compound 25 µM)
LC-2-ad | 0.993 | 0.959 | 0.969 | 0.963 | 0.952 | 0.818 | 0.87 | 0.765 | 0.813 | 0.788 | 0.563 | 0.469 | 0.455 | 0.355 | 0.307 | 0.266 | 0.271 | 0.254 | 0.288 | 0.264
RERF-LC-KJ | 1.04 | 1.01 | 1.11 | 0.941 | 1.11 | 0.814 | 0.827 | 0.849 | 0.84 | 0.772 | 1.1 | 1.08 | 0.969 | 0.655 | 0.678 | 0.429 | 0.514 | 0.485 | 0.49 | 0.42
EBC-1 | 0.557 | 0.528 | 0.6 | 0.458 | 0.486 | 0.996 | 0.811 | 0.782 | 0.759 | 0.897 | – | – | – | – | – | – | – | – | – | –
HCC-15 | 0.931 | 0.921 | 0.953 | 1.08 | 1.05 | 0.945 | 0.801 | 0.815 | 0.812 | 0.846 | 0.758 | 0.665 | 0.673 | 0.596 | 0.7 | 0.217 | 0.233 | 0.218 | 0.196 | 0.203
NCI-H1563 | 0.829 | 1 | 0.838 | 0.656 | 0.976 | 1.27 | 1.24 | 1.27 | 1.18 | 1.1 | – | – | – | – | – | 0.854 | 0.898 | 0.98 | 0.745 | 0.769
COR-L 105 | 0.861 | 0.913 | 0.737 | 0.475 | 0.836 | 0.953 | 0.925 | 0.873 | 0.839 | 0.977 | 0.407 | 0.402 | 0.344 | 0.36 | 0.336 | 1.08 | 1.21 | 1.11 | 1.11 | 1.07
NCI-H596 | 1.03 | 1.11 | 0.846 | 0.946 | 1.15 | 1.14 | 1.08 | 1.09 | 1.06 | 1.02 | – | – | – | – | – | 0.493 | 0.542 | 0.437 | 0.521 | 0.539
LU99A | 1.23 | 1.07 | 1.05 | 1.07 | 1.24 | 0.514 | 0.563 | 0.581 | 0.525 | 0.562 | 0.502 | 0.399 | 0.392 | 0.405 | 0.392 | 0.159 | 0.204 | 0.186 | 0.137 | 0.17
NCI-H1666 | 0.799 | 0.714 | 0.896 | 0.811 | 0.779 | 0.726 | 0.832 | 0.845 | 0.913 | 0.821 | 0.635 | 0.64 | 0.613 | 0.57 | 0.538 | 0.821 | 0.805 | 0.827 | 0.875 | 0.841
